According to US5422341A, “Motilin-like polypeptides with gastrointestinal motor stimulating activity” (Ohmeda Pharmaceutical Products Division Inc., priority 1993, dated 1995):
Counter-ions that a name gives are not always drawn. Like-named read-outs stand apart in the source and are kept apart here. Square brackets hold non-standard residues; d marks the D form. Peptide text beside a SMILES is read from it. * marks the point of attachment. X5 = C=CC[N+](C)(C)[C@@H](Cc1ccccc1)C(=O)*; X1 = C[N+](C)(C)[C@@H](Cc1ccccc1)C(=O)*; NMeF = CN[C@@H](Cc1ccccc1)C(=O)O

Key:
motilin receptor = molecular target: T1, motilin receptor (Oryctolagus cuniculus, UniProt G1T803); experiment: Determination of motilin receptor binding affinity (displacement of [125I-Tyr7, Nle13]motilin(porcine)); set-up: species or system rabbit
T1 construct: from tissue; host or cells: rabbit antral smooth muscle membranes
Protocol: The motilin receptor binding affinity of the peptides of this invention was determined by using the general procedure of Bormans, Peelers and Vantrappen, Regul. […] Fitting was performed using the iterative least-squares procedure of the SAS-software package (SAS Institute, Inc., Cary, N.C., USA).

[1] = molecular target: segments of rabbit duodenum (Oryctolagus cuniculus, UniProt G1T803); experiment: Rabbit duodenal smooth muscle strip tissue bath assay; format: cell-based; settings: negative logarithm of the dose giving 50% of the maximal response to motilin; isotonic contraction of rabbit duodenum segments
Protocol: The contractile response of segments of rabbit duodenum was determined isotonically in the tissue bath according to the procedure of Depoortere et at., J. Gastrointestinal Motility, 1, 150-159 (1989). The experimental protocol consisted of an equilibration period of 1 hour; a challenge with 10^-4 M acetylcholine followed by a wash-out period; a cumulative dose-response curve of a compound with, at the end, the addition of 10^-7 M motilin; and finally 10^-4 M acetylcholine. If the final response to 10^-4 M acetylcholine differed by more than 5% from the initial response, the results were discarded. The compounds were tested in the concentration range 10^-11 to 10^-4 M. The point corresponding to 50% of the maximal response to motilin (Emax) was determined by fitting the equation E=Emax (1+EC50 /[L]) through the data points. […] The dose giving 50% of the response is expressed using its negative logarithm (pEC50).

[2] = negative logarithm of the concentration displacing 50% of [125I-Tyr7, Nle13]motilin(porcine) from rabbit antral smooth muscle membranes, read-out: pIC50 (converted)

Chain of segments of rabbit duodenum (G1T803 1-400): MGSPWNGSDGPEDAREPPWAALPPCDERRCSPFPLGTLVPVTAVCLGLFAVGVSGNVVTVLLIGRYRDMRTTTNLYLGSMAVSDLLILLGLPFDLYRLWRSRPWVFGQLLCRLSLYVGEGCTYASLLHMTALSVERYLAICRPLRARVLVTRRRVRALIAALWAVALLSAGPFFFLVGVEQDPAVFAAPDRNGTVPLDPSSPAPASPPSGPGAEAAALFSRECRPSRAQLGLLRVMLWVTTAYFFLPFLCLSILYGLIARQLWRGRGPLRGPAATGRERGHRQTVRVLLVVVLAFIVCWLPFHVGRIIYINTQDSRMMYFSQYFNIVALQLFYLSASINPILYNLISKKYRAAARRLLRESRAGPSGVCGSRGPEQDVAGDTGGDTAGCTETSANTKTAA
T1 sequence (G1T803 1-400): as above

Row | IC50 (motilin receptor; [2]) [nM] | pEC50 [1] | IC50 (motilin receptor; pIC50, negative logarithm of the concentration displacing 50% of [125I-Tyr7, Nle13]motilin(porcine) from rabbit antral smooth muscle membranes) [nM] | SMILES
1 | 2.14 | 7.71 | – | CC[C@H](C)[C@H](NC(=O)[C@H](C)NC(=O)[C@@H](NC(=O)[C@@H](N)Cc1ccccc1)C(C)C)C(=O)N[C@@H](Cc1ccccc1)C(=O)N[C@H](C(=O)N[C@@H](Cc1ccc(O)cc1)C(=O)NCC(=O)N[C@@H](CCC(=O)O)C(=O)N[C@@H](CC(C)C)C(=O)N[C@@H](CCC(N)=O)C(=O)N[C@H](CCCNC(=N)N)C(=O)N[C@@H](CC(C)C)C(=O)N[C@@H](CCC(N)=O)C(=O)O)[C@@H](C)O [[Ala^3, D-Arg^ 12, Leu^13]pMOT(1-14)] (H-FVAIFTYGELQ[dR]LQ-OH)
2 | 2.45 | 7.50 | – | CC[C@H](C)[C@H](NC(=O)[C@@H]1CCCN1C(=O)[C@@H](NC(=O)[C@@H](N)Cc1ccccc1)C(C)C)C(=O)N[C@@H](Cc1ccccc1)C(=O)N[C@H](C(=O)N[C@@H](Cc1ccc(O)cc1)C(=O)NCC(=O)N[C@@H](CCC(=O)O)C(=O)N[C@@H](CC(C)C)C(=O)N[C@@H](CCC(N)=O)C(=O)N[C@H](CCCNC(=N)N)C(=O)N[C@@H](CC(C)C)C(=O)N[C@@H](CCC(N)=O)C(N)=O)[C@@H](C)O [[D-Arg^13, Leu^13]pMOT(1-14) amide] (H-FVPIFTYGELQ[dR]LQ-NH2)
3 | – | 7.32 | – | CC[C@H](C)[C@H](NC(=O)[C@H](C)NC(=O)[C@@H](NC(=O)[C@H](Cc1ccccc1)[N+](C)(C)C)C(C)C)C(=O)N[C@@H](Cc1ccccc1)C(=O)N[C@H](C(=O)N[C@@H](Cc1ccc(O)cc1)C(=O)NCC(=O)N[C@@H](CCC(=O)O)C(=O)N[C@@H](CC(C)C)C(=O)N[C@@H](CCC(N)=O)C(=O)N[C@H](CCCNC(=N)N)C(=O)N[C@@H](CC(C)C)C(=O)N[C@@H](CCC(N)=O)C(N)=O)[C@@H](C)O [[Me3 N^+ Phe^1, Ala^3, D-Arg^13, Leu^13 ]pMOT(1-14) amide] (X1-VAIFTYGELQ[dR]LQ-NH2)
4 | 1.74 | 7.47 | – | C=CC[N+](C)(C)[C@@H](Cc1ccccc1)C(=O)N[C@H](C(=O)N1CCC[C@H]1C(=O)N[C@H](C(=O)N[C@@H](Cc1ccccc1)C(=O)N[C@H](C(=O)N[C@@H](Cc1ccc(O)cc1)C(=O)NCC(=O)N[C@@H](CCC(=O)O)C(=O)N[C@@H](CC(C)C)C(=O)N[C@@H](CCC(N)=O)C(=O)N[C@@H](CCCNC(=N)N)C(=O)N[C@@H](CC(C)C)C(=O)N[C@@H](CCC(N)=O)C(N)=O)[C@@H](C)O)[C@@H](C)CC)C(C)C (X5-VPIFTYGELQRLQ-NH2)
5 | 0.617 | – | – | CC[C@H](C)[C@H](NC(=O)[C@@H]1CCCN1C(=O)[C@@H](NC(=O)[C@H](Cc1ccccc1)NC)C(C)C)C(=O)N[C@@H](Cc1ccccc1)C(=O)N[C@H](C(=O)N[C@@H](Cc1ccc(O)cc1)C(=O)NCC(=O)N[C@@H](CCC(=O)O)C(=O)N[C@@H](CC(C)C)C(=O)N[C@@H](CCC(N)=O)C(=O)N[C@@H](CCCNC(=N)N)C(=O)N[C@@H](CC(C)C)C(=O)N[C@H](CCC(N)=O)C(N)=O)[C@@H](C)O (H-[NMeF]VPIFTYGELQRL[dQ]-NH2)
6 | 0.977 | 7.74 | – | CC[C@H](C)[C@H](NC(=O)[C@@H]1CCCN1C(=O)[C@@H](NC(=O)[C@@H](N)Cc1ccccc1)C(C)C)C(=O)N[C@@H](Cc1ccccc1)C(=O)N[C@H](C(=O)N[C@@H](Cc1ccc(O)cc1)C(=O)NCC(=O)N[C@@H](CCC(=O)O)C(=O)N[C@@H](CC(C)C)C(=O)N[C@@H](CCC(N)=O)C(=O)N[C@H](CCCNC(=N)N)C(=O)N[C@@H](CC(C)C)C(=O)N[C@@H](CCC(N)=O)C(=O)O)[C@@H](C)O [[D-Arg^13, Leu^13]pMOT(1-14), [12-D-Arginine, 13-leucine]motilin-(1-14)-peptide (Porcine) Bis-trifiuoroacetate Salt] (H-FVPIFTYGELQ[dR]LQ-OH)
7 | 5.62 | 7.06 | – | CC[C@H](C)[C@H](NC(=O)[C@@H]1CCCN1C(=O)[C@@H](NC(=O)[C@@H](N)Cc1ccccc1)C(C)C)C(=O)N[C@@H](Cc1ccccc1)C(=O)N[C@H](C(=O)N[C@@H](Cc1ccc(O)cc1)C(=O)NCC(=O)N[C@@H](CCC(=O)O)C(=O)N[C@@H](CC(C)C)C(=O)N[C@@H](CCC(N)=O)C(=O)N[C@H](CCC(N)=O)C(=O)N[C@@H](CC(C)C)C(=O)N[C@@H](CCC(N)=O)C(=O)O)[C@@H](C)O [[D-Gln^12, Leu^13]pMOT(1-14)] (H-FVPIFTYGELQ[dQ]LQ-OH)
8 | 1.62 | – | – | CC[C@H](C)[C@H](NC(=O)[C@H](C)NC(=O)[C@@H](NC(=O)[C@H](Cc1ccccc1)[N+](C)(C)C)C(C)C)C(=O)N[C@@H](Cc1ccccc1)C(=O)N[C@H](C(=O)N[C@@H](Cc1ccc(O)cc1)C(=O)NCC(=O)N[C@@H](CCC(=O)O)C(=O)N[C@@H](CC(C)C)C(=O)N[C@@H](CCC(N)=O)C(=O)N[C@H](CCCNC(=N)N)C(=O)N[C@@H](CC(C)C)C(=O)N[C@@H](CCC(N)=O)C(N)=O)[C@@H](C)O (X1-VAIFTYGELQ[dR]LQ-NH2) [listing 1 of 2 here]
9 | 1.29 | 7.13 | – | CC[C@H](C)[C@H](NC(=O)[C@@H]1CCCN1C(=O)[C@@H](NC(=O)[C@@H](N)Cc1ccccc1)C(C)C)C(=O)N[C@@H](Cc1ccccc1)C(=O)N[C@H](C(=O)N[C@@H](Cc1ccc(O)cc1)C(=O)NCC(=O)N[C@@H](CCC(=O)O)C(=O)N[C@@H](CC(C)C)C(=O)N[C@@H](CCC(N)=O)C(=O)N[C@H](CCCNC(=N)N)C(=O)N[C@@H](CC(C)C)C(=O)N[C@@H](CCCCN)C(N)=O)[C@@H](C)O (H-FVPIFTYGELQ[dR]LK-NH2)
10 | 6.03 | 7.09 | – | CC[C@H](C)[C@H](NC(=O)[C@@H]1CCCN1C(=O)[C@@H](NC(=O)[C@@H](N)Cc1ccccc1)C(C)C)C(=O)N[C@@H](Cc1ccccc1)C(=O)N[C@H](C(=O)N[C@@H](Cc1ccc(O)cc1)C(=O)N[C@H](C)C(=O)N[C@@H](CCC(=O)O)C(=O)N[C@@H](CC(C)C)C(=O)N[C@@H](CCC(N)=O)C(=O)N[C@H](CCCNC(=N)N)C(=O)N[C@@H](CC(C)C)C(=O)N[C@@H](CCC(N)=O)C(=O)O)[C@@H](C)O [[D-Ala^8, D-Arg^12, Leu^13]pMOT(1-14), H-Phe-Val-Pro-Ile-Phe-Thr-Tyr-D-Ala-Glu-Leu-Gln-D-Arg-Leu-Gln-OH] (H-FVPIFTY[dA]ELQ[dR]LQ-OH)
11 | 1.66 | 7.63 | – | CC[C@H](C)[C@H](NC(=O)[C@@H]1CCCN1C(=O)[C@@H](NC(=O)[C@@H](N)Cc1ccccc1)C(C)C)C(=O)N[C@@H](Cc1ccccc1)C(=O)N[C@H](C(=O)N[C@@H](Cc1ccc(O)cc1)C(=O)NCC(=O)N[C@@H](CCC(=O)O)C(=O)N[C@@H](CC(C)C)C(=O)N[C@@H](C)C(=O)N[C@H](CCCNC(=N)N)C(=O)N[C@@H](CC(C)C)C(=O)N[C@@H](CCC(N)=O)C(=O)O)[C@@H](C)O [[Ala^11, D-Arg^12, Leu^13]pMOT(1-14)] (H-FVPIFTYGELA[dR]LQ-OH)
12 | – | 7.57 | – | CC[C@H](C)[C@H](NC(=O)[C@H](C)NC(=O)[C@@H](NC(=O)[C@H](Cc1ccccc1)[N+](C)(C)C)C(C)C)C(=O)N[C@@H](Cc1ccccc1)C(=O)N[C@H](C(=O)N[C@@H](Cc1ccc(O)cc1)C(=O)NCC(=O)N[C@@H](CCC(=O)O)C(=O)N[C@@H](CC(C)C)C(=O)N[C@@H](CCC(N)=O)C(=O)N[C@H](CCCNC(=N)N)C(=O)N[C@@H](CC(C)C)C(=O)N[C@@H](CCC(N)=O)C(N)=O)[C@@H](C)O [[Me3 N^+ Phe^1, Ala^3, D-Arg^12, Leu^13 pMOT(1-14) amide] (X1-VAIFTYGELQ[dR]LQ-NH2)
13 | 7.59 | 6.82 | – | CC[C@H](C)[C@H](NC(=O)[C@@H]1CCCN1C(=O)[C@@H](NC(=O)[C@@H](N)Cc1ccccc1)C(C)C)C(=O)N[C@@H](Cc1ccccc1)C(=O)N[C@H](C(=O)N[C@@H](Cc1ccc(O)cc1)C(=O)NCC(=O)N[C@@H](CCC(=O)O)C(=O)N[C@@H](CC(C)C)C(=O)N[C@@H](CCC(N)=O)C(=O)N[C@H](CC(N)=O)C(=O)N[C@@H](CC(C)C)C(=O)N[C@@H](CCC(N)=O)C(=O)O)[C@@H](C)O [[D-Asn^12, Leu^13]pMOT(1-14)] (H-FVPIFTYGELQ[dN]LQ-OH)
14 | 2.63 | – | – | CC[C@H](C)[C@H](NC(=O)[C@H](C)NC(=O)[C@@H](NC(=O)[C@H](Cc1ccccc1)[N+](C)(C)C)C(C)C)C(=O)N[C@@H](Cc1ccccc1)C(=O)N[C@H](C(=O)N[C@@H](Cc1ccc(O)cc1)C(=O)NCC(=O)N[C@@H](CCC(=O)O)C(=O)N[C@@H](CC(C)C)C(=O)N[C@@H](CCC(N)=O)C(=O)N[C@H](CCCNC(=N)N)C(=O)N[C@@H](CC(C)C)C(=O)N[C@@H](CCC(N)=O)C(N)=O)[C@@H](C)O (X1-VAIFTYGELQ[dR]LQ-NH2) [listing 2 of 2 here]
15 | – | 8.07 | 0.776 | CC[C@H](C)[C@H](NC(=O)[C@H](C)NC(=O)[C@@H](NC(=O)[C@H](Cc1ccccc1)NC)C(C)C)C(=O)N[C@@H](Cc1ccccc1)C(=O)N[C@H](C(=O)N[C@@H](Cc1ccc(O)cc1)C(=O)NCC(=O)N[C@@H](CCC(=O)O)C(=O)N[C@@H](CC(C)C)C(=O)N[C@@H](CCC(N)=O)C(=O)N[C@H](CCCNC(=N)N)C(=O)N[C@@H](CC(C)C)C(=O)N[C@H](CCC(N)=O)C(N)=O)[C@@H](C)O (H-[NMeF]VAIFTYGELQ[dR]L[dQ]-NH2)
